Source: article PMC11613490, “Cyclophostin and Cyclipostins analogues counteract macrolide-induced resistance mediated by erm(41) in Mycobacterium abscessus” (Journal of Biomedical Science, 2024)
≈ marks a conversion by molar mass, not a printed value. Where two headings read alike, the source gives them in different places.

What was measured:
Experiment in all cases: microbe, parasite or virus in culture
[1] = system: M. abscessus S (control, untreated); set-up: species or system Mycobacterium abscessus S; broth microdilution / checkerboard MIC in 7H9-S OADC, OD600, more than 90% growth inhibition; conditions: Mycobacteroides abscessus, read-out: MIC, single drug
[2] = system: M. abscessus S reference strain (Control, untreated); conditions: Mycobacteroides abscessus, read-out: MIC (0 µg/mL CyC, alone)
Procedure: Synergistic activities were tested in 96-well microplates by the checkerboard assay in Middlebrook 7H9-S^OADC broth and using microdilution method [47]. MIC of the antibiotics were determined in 96 well flat-bottom Nunclon Delta Surface microplates with lid (Thermo-Fisher Scientific, ref. 167008) using optical density to assess growth. Log-phase bacteria were diluted to a cell density of 5 × 10^6 cells/mL in 7H9-S^OADC medium. Then, 100 µL of this bacterial suspension (5 × 10^5 cells final per well) was added to each well containing 100 µL of the 7H9-S^OADC medium, serial two-fold dilutions of the selected antibiotics or controls to a final volume of 200 µL. In addition, wells containing 200 µL of 7H9-S^OADC medium only were used as sterility/background controls, whereas wells containing 100 µg/mL kanamycin (Euromedex) was used as positive control for growth inhibition. Plates were incubated at 37 °C for 4 to 5 days. The optical density (OD) at 600 nm was quantified using a Tecan Spark 10 M™ multimode microplate reader (Tecan Group Ltd., France). Relative growth units were defined as: RGU% = (test well OD600nm/mean OD600nm of growth control wells) ×100. For each condition, three biological replicates were performed. The MIC of each drug was defined as the lowest drug concentration that inhibited more than 90% of the bacterial growth.

[3] = system: M. abscessus S reference strain (Control, untreated); set-up: species or system Mycobacterium abscessus; broth microdilution in 7H9-OADC, OD600 growth, MIC defined as 90% growth inhibition; conditions: Mycobacteroides abscessus, single drug, read-out: MIC (0 µg/mL CyC, alone)

| SMILES | MIC [1] [µg/mL] | also measured |
| --- | --- | --- |
| CC[C@H]1OC(=O)[C@H](C)[C@@H](O[C@H]2C[C@@](C)(OC)[C@@H](O)[C@H](C)O2)[C@H](C)[C@@H](O[C@@H]2O[C@H](C)C[C@H](N(C)C)[C@H]2O)[C@](C)(O)C[C@@H](C)CN(C)[C@H](C)[C@@H](O)[C@]1(C)O [AZM, azithromycin] | 6 | – |
| CC[C@H]1OC(=O)[C@H](C)[C@@H](O[C@H]2C[C@@](C)(OC)[C@@H](O)[C@H](C)O2)[C@H](C)[C@@H](O[C@@H]2O[C@H](C)C[C@H](N(C)C)[C@H]2O)[C@](C)(OC)C[C@@H](C)C(=O)[C@H](C)[C@@H](O)[C@]1(C)O [CLR, clarithromycin] | 0.6 | – |
| CCCCCCCCCCCCCCCCOP1(=O)OCCC(C(=O)OC)=C(C)O1 (stereo not shown) [CyC17] | – | MIC [2]: 3.2 µg/mL (≈ 7.17 µM) |
| CCCCCCCCCCCOP1(=O)OCCC(C(=O)OC)=C(C)O1 (stereo not shown) [CyC31] | – | MIC [3]: 20 µg/mL (≈ 53.1 µM) |
